# Experimental data reported in US20050069907A1, “Methods for using double-mutant RNA polymerases with reduced discrimination between non-canonical and canonical nucleoside triphosphates” (priority 2002, published 2005).
# Columns and labels:
# [1] = test system: HindIII-cut pT75; experiment: Run-off transcription with 2′-OMe- or 2′-azido-NTPs on HindIII-cut pT75; format: biochemical; conditions: for Reduction of run-off transcript synthesis: 2′-OMe-UTP; for Reduction of run-off transcript yields relative to 4 NTPs: 2′-azido-UTP
# Procedure: RNAPs were prepared as described (Brieba, L G, and Sousa, R. Biochemistry, 39: 919-923, 2000). Transcription reactions were carried out for 30 min. at room temperature in 40 mM Tris-Cl, pH 8.0, 6 mM MgCl2, 10 mM NaCl, 2 mM spermidine, with templates at 10^−7 M and RNAPs at 2×10^−7 M. All NTPs were used at 0.5 mM, and transcripts were labeled by inclusion of 1% v/v 800 Ci/mM […] in the reaction. Modified NTPs were from Trilink Biotechnologies. Reactions were stopped by addition of an equal volume of 90% formamide, 50 mM EDTA, 0.01% xylene cyanol, resolved by electrophoresis in 20% acrylamide, 1% bis-acrylamide, 1×TBE gels, and visualized on a Molecular Dynamics Phosphorimager.
# With the pPK5 template, UMP and CMP are not incorporated into the first 9 nt of RNA. Incorporation of non-canonical NMPs during synthesis of the first 9 nt of RNA is expected to cause greater reductions in run-off transcript synthesis because the RNA is readily released from the transcription complex during this initial phase of transcription. Therefore, if incorporation of a non-canonical NMP is slow, the RNA will usually dissociate before the NMP is incorporated. […] To see whether NMPs with bulky 2′-substituents could be incorporated during the initial phase of transcription a Hind-III linearized pT75 (Tabor, S. and Richardson, C. C., “A bacteriophage T7 RNA polymerase/promoter system for controlled exclusive expression of specific genes,” Proc. Natl. Acad. Sci. USA 82:1074-1078, 1985) was used. On this template, UMP is first incorporated at +14 while CMP is incorporated at +6 and +7. In reactions with 2′-OMe-UTP run-off transcript synthesis is reduced 11-fold, 5-fold, and <2-fold with the wild-type, and the Y639F, and Y639F/H784A mutants, respectively (FIG. 2c; lanes 2, 6, 10). However, in reactions with 2′-OMe-CTP run-off transcription is undetectable with the wild-type or Y639F enzymes (FIG. 2c; lanes 3, 4, 7, 8), and is reduced ˜700-fold with Y639F/H784A (FIG. 2c; lanes 11, 12).
# Run-off transcript yields in reactions with HindIII-cut pT75 and 2′-azido-UTP are reduced 18-, 8.5-, and <2-fold with wild-type and Y639F and Y639F/H784 mutants, respectively (FIG. 2d; lanes 2, 6, 10), relative to reactions with 4 NTPs (FIG. 2d; lanes 1, 5, 9). In reactions with 2′-azido-CTP, or both 2′-azido-CTP and 2′-azido-UTP, run-off transcription is undetectable with the wild-type enzyme (FIG. 2d; lanes 3, 4), is reduced 65-fold with Y639F (FIG. 2d; lanes 7, 8), but is reduced only 7-fold with Y639F/H784A (FIG. 2d; lanes 11, 12).
# [2] = 2′,3′-dideoxy NTP preference (relative specificity kcat/Km NTP vs ddNTP); format: biochemical
# Source text: Numbers reflect the relative specificity (kcat/Km) for an NTP vs. the corresponding ddNTP. Relative specificities could not be evaluated for the wild-type T7 RNAP because the ddNTPs are such poor substrates, but these relative specificities appear to be at least 150-fold.
# [3] = transcripts synthesized in vivo; cited from earlier work
# [4] = test system: supercoiled pT75; experiment: Transcript elongation rate in 3 rNTP + 1 dNTP reactions; format: biochemical
# Procedure: Elongation rate determinations were carried out as described (Golomb and Chamberlin, 1974) with some variations (Bonner, et al., 1994).
# Elongation rates of Y639F in reactions containing a single dNTP: Elongation rates for Y639F in reactions with 4 rNTPs or 1 dNTP and 3 rNTPs were determined by analyzing aliquots, taken at 10 second intervals, from transcription reactions initiated on supercoiled PT75 by adding NTPs to otherwise complete reaction mixes (FIG. 6).
# The template was supercoiled pT75 at 5×10^-7 M. Y639F polymerase was used at a concentration of 10^-6 M. Reactions contained the indicated NTPs. Labeling was with α-P32-rATP (lane e) or α-P32-rGTP (other lanes). After initiation of the reactions aliquots were taken at 10 second intervals and analyzed on 1% agarose denaturing-formaldehyde gels. […] The bars indicate the positions of λ DNA markers.
# When analyzed on denaturing agarose gels (FIG. 6) the heterogeneously sized transcripts from these reactions are resolved as a smear with the trailing edge of the smear corresponding to transcripts initiated at t=0 and from which the maximal transcript elongation rate can be determined (Golomb and Chamberlin, 1974; Bonner, et al., 1994). The following elongation rate reductions (relative to a ‘4 rNTP’ reaction) were obtained for reactions containing a 3 rNTPS and 1 dNTP:dATP, ˜3-fold; dUTP, ˜2-fold; dGTP ˜1.5-fold; dCTP, 1-1.5-fold. Because of its poor activity in reactions with dNTPs it was difficult to determine the corresponding elongation rate reductions for the W.T. enzyme.
# [5] = test system: 12 base DNA or RNA primers hybridized to a DNA template; experiment: DNA- and RNA-primed synthesis of DNA and RNA; format: biochemical
# Source text: DNA- and RNA-primed synthesis of DNA and RNA: In the assays described so far de novo initiated synthesis has been examined. T7 RNAP can also extend RNA primers. Therefore, the abilities of both polymerase to carry out DNA or RNA primed synthesis of DNA and RNA (FIG. 5) were examined.
# Transcription reactions contained end-labeled 12 base DNA or RNA primers of identical sequence (GGACACGGCGAA, SEQ ID NO: 4) hybridized to a DNA template ([…] TAAGTATCC, SEQ ID NO: 5). Primer-template concentration was 10^-5 M. Reactions contained the indicated polymerases (10^-7 M) and NTPs. NTP concentrations and electrophoresis as in FIG. 1.
# [6] = 2′-azido-CTP, or both 2′-azido-CTP and 2′-azido-UTP
Substance,Reduction of run-off transcription ([1]; 2′-OMe-CTP),Reduction of run-off transcript synthesis [1],"Reduction of run-off transcription [1, 6]",Reduction of run-off transcript yields relative to 4 NTPs [1],Relative specificity NTP vs. corresponding ddNTP [2],Protein per transcript compared to transcripts synthesized by wild-type enzyme [3],Elongation rate reduction relative to 4 rNTP reaction ([4]; 3 rNTPs and dATP),Elongation rate reduction relative to 4 rNTP reaction ([4]; 3 rNTPs and dCTP),Elongation rate reduction relative to 4 rNTP reaction ([4]; 3 rNTPs and dGTP),Elongation rate reduction relative to 4 rNTP reaction ([4]; 3 rNTPs and dUTP),Extension of DNA and RNA primers with dNTPs less efficient than with rNTPs [5]
W.T.: wild-type T7 RNA polymerase [reference compound],undetectable,11 fold,undetectable,18 fold,at least 150 fold,,,,,,
Y639F: T7 RNAP with wild-type tyrosine at position 639 substituted by phenylalanine,undetectable,5 fold,65 fold,8.5 fold,,½-⅓,~3 fold,1-1.5 fold,~1.5 fold,~2 fold,~4 fold
